These compounds were tested on M. tuberculosis H37Rv_gfp. Settings: in combination with pretomanid 20 ng·mL−1; 5 days at 37° C.; […]; read-out: EC50 H37Rv_gfp.
Format: cell-based, Mycobacterium tuberculosis
In the case of `O=C1[C@@H]2[C@H](C(=O)N1c1nc3ccc(Oc4ncccc4C(F)(F)F)cc3s1)[C@@H]1C=C[C@H]2C1` [Example 26, (1R,2S,6R,7S)-4-[6-[[3-(trifluoromethyl)-2-pyridyl]oxy]-1,3-benzothiazol-2-yl]-4-azatricyclo[5.2.1.02,6]dec-8-ene-3,5-dione], the EC50 is reported as 1000 to 5000 nM. `C#CCOc1cccc2sc(N3C(=O)[C@@H]4[C@H](C3=O)[C@@H]3C=C[C@H]4C3)nc12` [Example 76, (1R,2S,6R,7S)-4-(4-prop-2-ynoxy-1,3-benzothiazol-2-yl)-4-azatricyclo[5.2.1.02,6]dec-8-ene-3,5-dione] was tested, and the EC50 was 10000 to 20000 nM. For `O=C(Nc1nc2ccc(I)cc2s1)[C@@H]1C2C=CC(C2)[C@@H]1C(=O)O` (stereo partly shown) [Example 49, 3-[(6-iodo-1,3-benzothiazol-2-yl)carbamoyl]bicyclo[2.2.1]hept-5-ene-2-carboxylic acid], the EC50 was 1000 to 5000 nM. In the case of `CC(C)(C)c1ccc2nc(NC(=O)[C@@H]3C4C=CC(C4)[C@@H]3C(=O)O)sc2c1` (stereo partly shown) [Example 12, 3-[(6-tert-butyl-1,3-benzothiazol-2-yl)carbamoyl]bicyclo[2.2.1]hept-5-ene-2-carboxylic acid], the EC50 is reported as less than 1000 nM. In the case of `Cc1cc2nc(NC(=O)[C@@H]3C4C=CC(C4)[C@@H]3C(=O)O)sc2cc1C` (stereo partly shown) [Example 14, 3-[(5,6-dimethyl-1,3-benzothiazol-2-yl)carbamoyl]bicyclo[2.2.1]hept-5-ene-2-carboxylic acid], the EC50 is reported as less than 1000 nM. `CC(C)(C)C#Cc1ccc2nc(NC(=O)[C@@H]3C4C=CC(C4)[C@@H]3C(=O)O)sc2c1` (stereo partly shown) [Example 78, 3-[[6-(3,3-dimethylbut-1-ynyl)-1,3-benzothiazol-2-yl]carbamoyl]bicyclo [2.2.1]hept-5-ene-2-carboxylic acid] showed an EC50 of less than 1000 nM. With `Cc1cccc2sc(NC(=O)[C@@H]3C4C=CC(C4)[C@@H]3C(=O)O)nc12` (stereo partly shown) [Example 16, 3-[(4-methyl-1,3-benzothiazol-2-yl)carbamoyl]bicyclo[2.2.1]hept-5-ene-2-carboxylic acid] the EC50 was less than 1000 nM. In the case of `O=C(Nc1nc2ccc(Oc3ncccc3C(F)(F)F)cc2s1)[C@@H]1C2C=CC(C2)[C@@H]1C(=O)O` (stereo partly shown) [Example 25, 3-[[6-[[3-(trifluoromethyl)-2-pyridyl]oxy]-1,3-benzothiazol-2-yl]carbamoyl]bicyclo[2.2.1]hept-5-ene-2-carboxylic acid], the EC50 is reported as 1000 to 5000 nM. `O=C(Nc1nc2ccc(Oc3ccccc3)cc2s1)[C@@H]1C2C=CC(C2)[C@@H]1C(=O)O` (stereo partly shown) [Example 17, 3-[(6-phenoxy-1,3-benzothiazol-2-yl)carbamoyl]bicyclo[2.2.1]hept-5-ene-2-carboxylic acid] was tested, and the EC50 was less than 1000 nM. `O=C(Nc1nc2ccc(Nc3ccc(OC(F)(F)F)cn3)cc2s1)[C@@H]1C2C=CC(C2)[C@@H]1C(=O)O` (stereo partly shown) [Example 93, 3-[[6-[[5-(trifluoromethoxy)-2-pyridyl]amino]-1,3-benzothiazol-2-yl]carbamoyl]bicyclo[2.2.1]hept-5-ene-2-carboxylic acid] was tested, and the EC50 was less than 1000 nM. Work on `O=C1[C@@H]2C3C=CC(C3)[C@@H]2C(=O)N1c1nc2ccc(-c3ccc(F)nc3)cc2s1` [Example 65, (1R,2S,6R,7S)-4-[6-(6-fluoro-3-pyridyl)-1,3-benzothiazol-2-yl]-4-azatricyclo[5.2.1.02.6]dec-8-ene-3,5-dione] yielded an EC50 of 1000 to 5000 nM. For `O=C(Nc1nc2ccc(-c3ccc(OC(F)(F)F)cc3)cc2s1)[C@@H]1C2C=CC(C2)[C@@H]1C(=O)O` (stereo partly shown) [Example 62, 3-[[6-[4-(trifluoromethoxy)phenyl]-1,3-benzothiazol-2-yl]carbamoyl]bicyclo[2.2.1]hept-5-ene-2-carboxylic acid], the EC50 was less than 1000 nM. For `Cc1ccc2nc(NC(=O)[C@@H]3C4CCC(C4)[C@@H]3C(=O)O)sc2c1` (stereo in doubt) [Example 3, 3-[(6-methyl-1,3-benzothiazol-2-yl)carbamoyl]norbornane-2-carboxylic acid], the EC50 was 1000 to 5000 nM. For `O=C1C2C3C=CC(C3)C2C(=O)N1c1nc2ccc(-c3ccccc3C(F)(F)F)cc2s1` [Example 58, (1R,2S,6R,7S)-4-[6-[[2-(trifluoromethyl)phenyl]-1,3-benzothiazol-2-yl]-4-azatricyclo [5.2.1.02,6]dec-8-ene-3,5-dione], the EC50 was 5000 to 10000 nM. With `O=C(Nc1nc2ccc(F)cc2s1)[C@@H]1C2C=CC(C2)[C@@H]1C(=O)O` (stereo partly shown) [Example 42, 3-[(6-fluoro-1,3-benzothiazol-2-yl)carbamoyl]bicyclo[2.2.1]hept-5-ene-2-carboxylic acid] the EC50 was 1000 to 5000 nM. With `O=C(Nc1nc2ccc(C3CCCCC3)cc2s1)[C@@H]1C2C=CC(C2)[C@@H]1C(=O)O` (stereo partly shown) [Example 52, 3-[(6-cyclohexyl-1,3-benzothiazol-2-yl)carbamoyl]bicyclo[2.2.1]hept-5-ene-2-carboxylic acid] the EC50 was less than 1000 nM. With `O=C1[C@@H]2[C@H](C(=O)N1c1nc3ccc(-c4ccc(C(F)(F)F)nc4)cc3s1)[C@@H]1C=C[C@H]2C1` [Example 67, (1R,2S,6R,7S)-4-[6-[6-(trifluoromethyl)-3-pyridyl]-1,3-benzothiazol-2-yl]-4-azatricyclo [5.2.1.02,6]dec-8-ene-3,5-dione] the EC50 was 1000 to 5000 nM. `O=C(Nc1nc2ccc(Nc3cccc(F)n3)cc2s1)[C@@H]1C2C=CC(C2)[C@@H]1C(=O)O` (stereo partly shown) [Example 88, 3-[[6-[(6-fluoro-2-pyridyl)amino]-1,3-benzothiazol-2-yl]carbamoyl]bicyclo[2.2.1]hept-5-ene-2-carboxylic acid] gave an EC50 of less than 1000 nM. `O=C1[C@@H]2C3C=CC(C3)[C@@H]2C(=O)N1c1nc2c(O)cccc2s1` [Example 74] gave an EC50 of less than 1000 nM. `O=C(Nc1nc2ccc(-c3ccoc3)cc2s1)[C@@H]1C2C=CC(C2)[C@@H]1C(=O)O` (stereo partly shown) [Example 69, 3-[[6-(3-furyl)-1,3-benzothiazol-2-yl]carbamoyl]bicyclo[2.2.1]hept-5-ene-2-carboxylic acid] was tested, and the EC50 was less than 1000 nM. `O=C1[C@@H]2C3C=CC(C3)[C@@H]2C(=O)N1c1nc2ccc(Nc3ccc(C(F)(F)F)cn3)cc2s1` [Example 95] gave an EC50 of less than 1000 nM. In the case of `O=C(Nc1nc2ccc(Nc3cncc(C(F)(F)F)c3)cc2s1)[C@@H]1C2C=CC(C2)[C@@H]1C(=O)O` (stereo partly shown) [Example 91, 3-[[6-[[5-(trifluoromethyl)-3-pyridyl]amino]-1,3-benzothiazol-2-yl]carbamoyl]bicyclo[2.2.1]hept-5-ene-2-carboxylic acid], the EC50 is reported as 1000 to 5000 nM. In the case of `O=C(Nc1nc2ccc(Nc3ccc(F)cn3)cc2s1)[C@@H]1C2C=CC(C2)[C@@H]1C(=O)O` (stereo partly shown) [Example 86, 3-[[6-[(5-fluoro-2-pyridyl)amino]-1,3-benzothiazol-2-yl]carbamoyl]bicyclo[2.2.1]hept-5-ene-2-carboxylic acid], the EC50 is reported as less than 1000 nM. `O=C(Nc1nc2ccc(Nc3ccc(C(F)(F)F)cn3)cc2s1)[C@@H]1C2C=CC(C2)[C@@H]1C(=O)O` (stereo partly shown) [Example 96, 3-[[6-[[5-(trifluoromethyl)-2-pyridyl]amino]-1,3-benzothiazol-2-yl]carbamoyl]bicyclo[2.2.1]hept-5-ene-2-carboxylic acid] was tested, and the EC50 was 1000 to 5000 nM. Compound `COc1ccc2sc(NC(=O)[C@@H]3C4C=CC(C4)[C@@H]3C(=O)O)nc2c1` (stereo partly shown) [Example 5, 3-[(5-methoxy-1,3-benzothiazol-2-yl)carbamoyl]bicyclo[2.2.1]hept-5-ene-2-carboxylic acid] has an EC50 of 1000 to 5000 nM. `O=C(Nc1nc2ccc(-c3ccc(N4CCCCC4)cc3)cc2s1)[C@@H]1C2C=CC(C2)[C@@H]1C(=O)O` (stereo partly shown) [Example 100] was tested, and the EC50 was less than 1000 nM. `O=C(Nc1nc2ccc(-c3cncnc3)cc2s1)[C@@H]1C2C=CC(C2)[C@@H]1C(=O)O` (stereo partly shown) [Example 80, 3-[(6-pyrimidin-5-yl-1,3-benzothiazol-2-yl)carbamoyl]bicyclo[2.2.1]hept-5-ene-2-carboxylic acid] gave an EC50 of 10000 to 20000 nM. `O=C(Nc1nc2ccc(Br)cc2s1)[C@@H]1C2C=CC(C2)[C@@H]1C(=O)O` (stereo partly shown) [Example 47, 3-[(6-bromo-1,3-benzothiazol-2-yl)carbamoyl]bicyclo[2.2.1]hept-5-ene-2-carboxylic acid] was tested, and the EC50 was less than 1000 nM. `O=C(Nc1nc2ccc(Oc3ccc(Br)cn3)cc2s1)[C@@H]1C2C=CC(C2)[C@@H]1C(=O)O` (stereo partly shown) [Example 37, 3-[[6-[(5-bromo-2-pyridyl)oxy]-1,3-benzothiazol-2-yl]carbamoyl]bicyclo [2.2.1]hept-5-ene-2-carboxylic acid] was tested, and the EC50 was 1000 to 5000 nM. `O=C(Nc1nc2ccc(Cl)cc2s1)[C@@H]1C2C=CC(C2)[C@@H]1C(=O)O` (stereo partly shown) [Example 46, 3-[(6-chloro-1,3-benzothiazol-2-yl)carbamoyl]bicyclo[2.2.1]hept-5-ene-2-carboxylic acid] was tested, and the EC50 was 1000 to 5000 nM. In the case of `COc1ccc(-c2ccc3nc(NC(=O)[C@@H]4C5C=CC(C5)[C@@H]4C(=O)O)sc3c2)cc1` (stereo partly shown) [Example 54, 3-[[6-(4-methoxyphenyl)-1,3-benzothiazol-2-yl]carbamoyl]bicyclo[2.2.1]hept-5-ene-2-carboxylic acid], the EC50 is reported as less than 1000 nM. `O=C1[C@@H]2[C@H](C(=O)N1c1nc3ccc(Oc4cccc(C(F)(F)F)n4)cc3s1)[C@@H]1C=C[C@H]2C1` [Example 34, (1R,2S,6R,7S)-4-[6-[[6-(trifluoromethyl)-2-pyridyl]oxy]-1,3-benzothiazol-2-yl]-4-azatricyclo[5.2.1.02,6]dec-8-ene-3,5-dione] was tested, and the EC50 was 1000 to 5000 nM. For `O=C1[C@@H]2[C@H](C(=O)N1c1nc3ccc(-c4ccsc4)cc3s1)[C@@H]1C=C[C@H]2C1` [Example 68, (1R,2S,6R,7S)-4-[6-(3-thienyl)-1,3-benzothiazol-2-yl]-4-azatricyclo[5.2.1.02,6]dec-8-ene-3,5-dione], the EC50 was 1000 to 5000 nM. With `O=C(Nc1nc2ccc(Nc3cc(F)ccn3)cc2s1)[C@@H]1C2C=CC(C2)[C@@H]1C(=O)O` (stereo partly shown) [Example 85, 3-[[6-[(4-fluoro-2-pyridyl)amino]-1,3-benzothiazol-2-yl]carbamoyl]bicyclo[2.2.1]hept-5-ene-2-carboxylic acid] the EC50 was less than 1000 nM.

Same assay, conditions: in combination with pretomanid, unit inferred; read-out: average EC50 H37Rv_gfp
`CC(C)(C)C#Cc1ccc2nc(NC(=O)[C@@H]3C4C=CC(C4)[C@@H]3C(=O)O)sc2c1` (stereo partly shown) [Example 78, 3-[[6-(3,3-dimethylbut-1-ynyl)-1,3-benzothiazol-2-yl]carbamoyl]bicyclo [2.2.1]hept-5-ene-2-carboxylic acid] showed an EC50 of 130 nM. For `COc1ccc(-c2ccc3nc(NC(=O)[C@@H]4C5C=CC(C5)[C@@H]4C(=O)O)sc3c2)cc1` (stereo partly shown) [Example 54, 3-[[6-(4-methoxyphenyl)-1,3-benzothiazol-2-yl]carbamoyl]bicyclo[2.2.1]hept-5-ene-2-carboxylic acid], the EC50 was 110 nM.

Same assay, conditions: read-out: EC50 H37Rv_gfp
For `O=C1[C@@H]2C3C=CC(C3)[C@@H]2C(=O)N1c1nc2ccc(Nc3ccnc(F)c3)cc2s1` [Example 98, 4-[6-[(2-fluoro-4-pyridyl)amino]-1,3-benzothiazol-2-yl]-4-azatricyclo[5.2.1.02,6]dec-8-ene-3,5-dione], the EC50 was 5000 to 10000 nM.
